Measured values from publication PMC7442216 (Journal of medicinal chemistry, 2019).

Test system: HIV-1 NL4-3 NanoLuc-sec infection of MT4 cells
Experiment: MOA comparison: antiviral activity in the presence or absence of enzastaurin
Type: cell-based
Conditions: for HIV-1 inhibitory activity in the presence of enzastaurin: enzastaurin 1 μM, 1 at 0.6 nM, 13e at 2 nM

## C=C(C)[C@]12C[C@@H](COC(=O)c3ccccc3)[C@@]34OC5(O[C@@H]1[C@@H]3[C@@H]1O[C@]1(CO)[C@@H](O)[C@@]1(O)[C@H]4[C@H]([C@H](C)[C@@H]1OC(=O)c1ccncc1)[C@H](C)CCCCCC[C@H]5O)O2 [Compound 13e, 3-O-(4-Pyridinylcarbonyl) Stelleramacrin]
  HIV-1 inhibitory activity in the presence of enzastaurin: able to abrogate
In this assay
  antiviral potency relative to 1: approximately threefold weaker

## C=C(C)[C@]12C[C@@H](COC(=O)c3ccccc3)[C@@]34OC5(O[C@@H]1[C@@H]3[C@@H]1O[C@]1(CO)[C@@H](O)[C@@]1(O)[C@H]4[C@H]([C@H](C)[C@@H]1OC(=O)c1ccccc1)[C@H](C)CCCCCC[C@H]5O)O2 [Compound 1, gnidimacrin]
  HIV-1 inhibitory activity in the presence of enzastaurin: largely abrogated

## Cn1cc(C2=C(c3cn(C4CCN(Cc5ccccn5)CC4)c4ccccc34)C(=O)NC2=O)c2ccccc21 [enzastaurin, reference compound]
Enzastaurin at 1 μM, GM at 0.6 nM
  antagonism of GM's HIV-1 inhibitory activity: effectively antagonized
